Read-outs that look alike come from different tables or passages of the source.
How the values were obtained:
[1] = system: melanotic melanoma B16; experiment: Melanotic Melanoma B16 test; type: in vivo, C57BC/6 mice
Experimental: The animals used are C57BC/6 mice, all of the same sex, weighing a minimum of 17 g. and all within a 3-g. weight range. There are normally 10 animals per test group. A one-gram portion of melanotic melanoma B16 tumor is homogenized in 10 ml. of cold balanced salt solution and a 0.5-ml. aliquot of the homogenate is implanted intraperitoneally into each of the test mice. The test compounds are administered intraperitoneally on days one through 9 (relative to tumor inoculation) at various doses. The animals are weighed and survivors are recorded on a regular basis for 60 days. The median survival time and the ratio of survival time for treated (T)/control (C) animals are calculated. […] The criterion for efficacy is T/C×100≥125%.

[2] = system: lymphocytic leukemia P388; experiment: Lymphocytic leukemia P388 test (intraperitoneal administration); type: in vivo, DBA/2 mice
Experimental: The animals used are DBA/2 mice all of one sex, weighing a minimum of 17 g. and all within a 3 gram weight range. There are 5 or 6 animals per test group. The tumor transplant is by intraperitoneal injection of 0.1 ml. of dilute ascitic fluid containing 10^6 cells of lymphocytic leukemia P388. The test compounds are administered intraperitoneally on days one, 5 and 9 (relative to tumor inoculation) at various doses. The animals are weighed and survivors are recorded on a regular basis for 30 days. The median survival time and the ratio of survival time for treated (T)/control (C) animals are calculated.

[3] = 25 mg./kg. i.p., days 1, 5 and 9
[4] = Mus musculus, P388, ip, 25 mg./kg. i.p., days 1, 5 and 9, efficacy ≥125%, read-out: T/C × 100
[5] = 50 mg./kg. i.p., days 1 through 9
[6] = Mus musculus, ip, 50 mg./kg. i.p., days 1 through 9, efficacy ≥125%, read-out: T/C × 100
[7] = 12 mg./kg. i.p., days 1, 5 and 9
[8] = 50 mg./kg. i.p., days 1, 5 and 9
[9] = 100 mg./kg. i.p., days 1, 5 and 9
[10] = 200 mg./kg. i.p., days 1, 5 and 9
[11] = Mus musculus, P388, ip, 12 mg./kg. i.p., days 1, 5 and 9, efficacy ≥125%, read-out: T/C × 100
[12] = Mus musculus, P388, ip, 50 mg./kg. i.p., days 1, 5 and 9, efficacy ≥125%, read-out: T/C × 100
[13] = Mus musculus, P388, ip, 100 mg./kg. i.p., days 1, 5 and 9, efficacy ≥125%, read-out: T/C × 100
[14] = Mus musculus, P388, ip, 200 mg./kg. i.p., days 1, 5 and 9, efficacy ≥125%, read-out: T/C × 100
[15] = 25 mg./kg. i.p., days 1 through 9
[16] = Mus musculus, ip, 25 mg./kg. i.p., days 1 through 9, efficacy ≥125%, read-out: T/C × 100
[17] = 12 mg./kg. i.p., days 1 through 9
[18] = Mus musculus, P388, ip, read-out: T/C × 100
[19] = Mus musculus, ip, 12 mg./kg. i.p., days 1 through 9, efficacy ≥125%, read-out: T/C × 100

CNCCNc1ccc(NCCNC)c2c1C(=O)c1c(O)ccc(O)c1C2=O.Cl.Cl [1,4-Bis[2-(methylamino)ethylamino]-5,8-dihydroxyanthraquinone dihydrochloride]
Median Survival Time ([1]; 0.19 mg./kg. i.p., days 1 through 9): 29.5 days | Median Survival Time ([1]; 0.39 mg./kg. i.p., days 1 through 9): 25.0 days | Median Survival Time ([1]; 0.78 mg./kg. i.p., days 1 through 9): 35.0 days | Median Survival Time ([1]; 1.5 mg./kg. i.p., days 1 through 9): 33.0 days | Median Survival Time ([1]; 3.1 mg./kg. i.p., days 1 through 9): 49.0 days | Median Survival Time ([1]; 6.2 mg./kg. i.p., days 1 through 9): 26.5 days | Median Survival Time ([1]; 12.5 mg./kg. i.p., days 1 through 9): 11.5 days | response vs control in vivo at 0.19 mg/kg ([1]; Mus musculus, ip, 0.19 mg./kg. i.p., days 1 through 9, efficacy ≥125%, read-out: T/C × 100): 151% | response vs control in vivo at 0.39 mg/kg ([1]; Mus musculus, ip, 0.39 mg./kg. i.p., days 1 through 9, efficacy ≥125%, read-out: T/C × 100): 128% | response vs control in vivo at 0.78 mg/kg ([1]; Mus musculus, ip, 0.78 mg./kg. i.p., days 1 through 9, efficacy ≥125%, read-out: T/C × 100): 179% | response vs control in vivo at 1.5 mg/kg ([1]; Mus musculus, ip, 1.5 mg./kg. i.p., days 1 through 9, efficacy ≥125%, read-out: T/C × 100): 169% | response vs control in vivo at 3.1 mg/kg ([1]; Mus musculus, ip, 3.1 mg./kg. i.p., days 1 through 9, efficacy ≥125%, read-out: T/C × 100): 251% | response vs control in vivo at 6.2 mg/kg ([1]; Mus musculus, ip, 6.2 mg./kg. i.p., days 1 through 9, efficacy ≥125%, read-out: T/C × 100): 136% | response vs control in vivo at 12.5 mg/kg ([1]; Mus musculus, ip, 12.5 mg./kg. i.p., days 1 through 9, efficacy ≥125%, read-out: T/C × 100): 59% | Median Survival Time ([2]; 0.04 mg./kg. i.p., days 1, 5 and 9): 17.0 days | Median Survival Time ([2]; 0.09 mg./kg. i.p., days 1, 5 and 9): 18.0 days | Median Survival Time ([2]; 0.19 mg./kg. i.p., days 1, 5 and 9): 18.5 days | Median Survival Time ([2]; 0.39 mg./kg. i.p., days 1, 5 and 9): 19.5 days | Median Survival Time ([2]; 0.78 mg./kg. i.p., days 1, 5 and 9): 18.5 days | Median Survival Time ([2]; 1.5 mg./kg. i.p., days 1, 5 and 9): 22.5 days | Median Survival Time ([2]; 3.1 mg./kg. i.p., days 1, 5 and 9): 22.0 days | Median Survival Time ([2]; 6.2 mg./kg. i.p., days 1, 5 and 9): 20.0 days | Median Survival Time ([2]; 12.5 mg./kg. i.p., days 1, 5 and 9): 16.0 days | Median Survival Time [2, 3]: 9.0 days | response vs control in vivo at 0.19 mg/kg ([2]; Mus musculus, P388, ip, 0.19 mg./kg. i.p., days 1, 5 and 9, efficacy ≥125%, read-out: T/C × 100): 176% | response vs control in vivo at 0.04 mg/kg ([2]; Mus musculus, P388, ip, 0.04 mg./kg. i.p., days 1, 5 and 9, efficacy ≥125%, read-out: T/C × 100): 162% | response vs control in vivo at 0.09 mg/kg ([2]; Mus musculus, P388, ip, 0.09 mg./kg. i.p., days 1, 5 and 9, efficacy ≥125%, read-out: T/C × 100): 171% | response vs control in vivo at 0.39 mg/kg ([2]; Mus musculus, P388, ip, 0.39 mg./kg. i.p., days 1, 5 and 9, efficacy ≥125%, read-out: T/C × 100): 186% | response vs control in vivo at 0.78 mg/kg ([2]; Mus musculus, P388, ip, 0.78 mg./kg. i.p., days 1, 5 and 9, efficacy ≥125%, read-out: T/C × 100): 176% | response vs control in vivo at 1.5 mg/kg ([2]; Mus musculus, P388, ip, 1.5 mg./kg. i.p., days 1, 5 and 9, efficacy ≥125%, read-out: T/C × 100): 214% | response vs control in vivo at 3.1 mg/kg ([2]; Mus musculus, P388, ip, 3.1 mg./kg. i.p., days 1, 5 and 9, efficacy ≥125%, read-out: T/C × 100): 210% | response vs control in vivo at 6.2 mg/kg ([2]; Mus musculus, P388, ip, 6.2 mg./kg. i.p., days 1, 5 and 9, efficacy ≥125%, read-out: T/C × 100): 190% | response vs control in vivo at 12.5 mg/kg ([2]; Mus musculus, P388, ip, 12.5 mg./kg. i.p., days 1, 5 and 9, efficacy ≥125%, read-out: T/C × 100): 152% | response vs control in vivo at 25 mg/kg [2, 4]: 86%

CCN(CC)CCNc1ccc(NCCN(CC)CC)c2c1C(=O)c1c(O)ccc(O)c1C2=O [1,4-Bis[(2-diethylaminoethyl)amino]-5,8-dihydroxyanthraquinone]
Median Survival Time [1, 5]: 20.5 days | response vs control in vivo at 50 mg/kg [1, 6]: 125% | Median Survival Time [2, 7]: 12.0 days | Median Survival Time [2, 3]: 16.0 days | Median Survival Time [2, 8]: 15.0 days | Median Survival Time [2, 9]: 18.0 days | Median Survival Time [2, 10]: 20.0 days | response vs control in vivo at 12 mg/kg [2, 11]: 126% | response vs control in vivo at 25 mg/kg [2, 4]: 168% | response vs control in vivo at 50 mg/kg [2, 12]: 158% | response vs control in vivo at 100 mg/kg [2, 13]: 189% | response vs control in vivo at 200 mg/kg [2, 14]: 210%

CN(C)CCCNc1ccc(NCCCN(C)C)c2c1C(=O)c1c(O)ccc(O)c1C2=O [1,4-Bis[(3-dimethylaminopropyl)amino]-5,8-dihydroxyanthraquinone]
Median Survival Time [1, 15]: 20.0 days | response vs control in vivo at 25 mg/kg [1, 16]: 125% | Median Survival Time [2, 7]: 15.0 days | Median Survival Time [2, 3]: 15.5 days | Median Survival Time [2, 8]: 15.5 days | response vs control in vivo at 12 mg/kg [2, 11]: 125% | response vs control in vivo at 25 mg/kg [2, 4]: 129% | response vs control in vivo at 50 mg/kg [2, 12]: 129%

NCCNC1=C2C(=O)c3c(O)ccc(O)c3C(=O)C2=C(NCCN)CC1 [Leuco-1,4-bis(2-aminoethylamino)-5,8-dihydroxyanthraquinone]
Median Survival Time [1, 17]: 32.0 days | response vs control in vivo at 12 mg/kg ([1]; Mus musculus, ip, read-out: T/C × 100): 200% | Median Survival Time [2, 7]: 18.0 days | Median Survival Time [2, 3]: 19.0 days | Median Survival Time [2, 8]: 23.0 days | Median Survival Time [2, 9]: 19.0 days | response vs control in vivo at 12 mg/kg [2, 18]: 150% | response vs control in vivo at 100 mg/kg [2, 18]: 158% | response vs control in vivo at 25 mg/kg [2, 4]: 158% | response vs control in vivo at 50 mg/kg [2, 12]: 192%

NCCCNC1=C2C(=O)c3c(O)ccc(O)c3C(=O)C2=C(NCCCN)CC1 [Leuco-1,4-bis(3-aminopropylamino)-5,8-dihydroxyanthraquinone]
Median Survival Time ([1]; 6 mg./kg. i.p., days 1 through 9): 22.5 days | Median Survival Time [1, 17]: 23.5 days | Median Survival Time [1, 15]: 27.0 days | Median Survival Time [1, 5]: 31.5 days | response vs control in vivo at 6 mg/kg ([1]; Mus musculus, ip, 6 mg./kg. i.p., days 1 through 9, efficacy ≥125%, read-out: T/C × 100): 141% | response vs control in vivo at 12 mg/kg [1, 19]: 147% | response vs control in vivo at 25 mg/kg [1, 16]: 169% | response vs control in vivo at 50 mg/kg [1, 6]: 197% | Median Survival Time [2, 7]: 16.0 days | Median Survival Time [2, 3]: 18.0 days | Median Survival Time [2, 8]: 16.0 days | Median Survival Time [2, 9]: 18.0 days | Median Survival Time [2, 10]: 18.0 days | response vs control in vivo at 12 mg/kg [2, 11]: 133% | response vs control in vivo at 25 mg/kg [2, 4]: 150% | response vs control in vivo at 50 mg/kg [2, 12]: 133% | response vs control in vivo at 100 mg/kg [2, 13]: 150% | response vs control in vivo at 200 mg/kg [2, 14]: 150%

NCCCCNC1=C2C(=O)c3c(O)ccc(O)c3C(=O)C2=C(NCCCCN)CC1 [Leuco-1,4-bis(4-aminobutylamino)-5,8-dihydroxyanthraquinone]
Median Survival Time [1, 17]: 16.0 days | Median Survival Time [1, 15]: 18.5 days | Median Survival Time [1, 5]: 20.0 days | Median Survival Time ([1]; 100 mg./kg. i.p., days 1 through 9): 21.0 days | response vs control in vivo at 12 mg/kg [1, 19]: 94% | response vs control in vivo at 25 mg/kg [1, 16]: 109% | response vs control in vivo at 50 mg/kg [1, 6]: 118% | response vs control in vivo at 100 mg/kg ([1]; Mus musculus, ip, 100 mg./kg. i.p., days 1 through 9, efficacy ≥125%, read-out: T/C × 100): 124% | Median Survival Time [2, 9]: 14.0 days | Median Survival Time [2, 10]: 17.0 days | Median Survival Time ([2]; 300 mg./kg. i.p., days 1, 5 and 9): 18.0 days | Median Survival Time ([2]; 400 mg./kg. i.p., days 1, 5 and 9): 20.0 days | response vs control in vivo at 100 mg/kg [2, 13]: 133% | response vs control in vivo at 200 mg/kg [2, 14]: 162% | response vs control in vivo at 300 mg/kg ([2]; Mus musculus, P388, ip, 300 mg./kg. i.p., days 1, 5 and 9, efficacy ≥125%, read-out: T/C × 100): 171% | response vs control in vivo at 400 mg/kg ([2]; Mus musculus, P388, ip, 400 mg./kg. i.p., days 1, 5 and 9, efficacy ≥125%, read-out: T/C × 100): 190%
